US20230123334A1, “AMINO LIPID COMPOUND, PREPARATION METHOD THEREFOR, AND APPLICATION THEREOF” (SHENZHEN SHENXIN BIOTECHNOLOGY CO., LTD., priority 2020, published 2023)

System: HEK293 cells
Test: Preliminary screening as mRNA vectors, EGFP mRNA transfection of HEK293 cells
Assay type: cell-based
Details: EGFP mRNA 50 ng per well, 96-well plates; percentage of GFP fluorescent cells relative to total number of cells (Hoechst)
Procedure, shortened: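 Each well of HEK293 cells received 50 ng of EGFP mRNA. Efficiency was expressed as percent GFP-expressing cells over Hoechst-defined total cell number.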

Structure (SMILES) | Absolute mRNA transfection efficiency in HEK293 cells
CCCCCCCCCCCCCCCSc1nc(NCCCCCCCCC)nc(NCCCN2CCOCC2)n1 [Compound D8S15N9] | 1.1%
CCCCCCCCCCSc1nc(NCCN2CCN(C)CC2)nc(SCCCCCC)n1 [Compound D5S6S10] | 10.1%
CCCCCCCSc1nc(NCCCN(C)C)nc(SCCCCCC)n1 [Compound D6S6S7] | 11.3%
CCCCCCCCCCCCCCCCNc1nc(NCCN2CCCCC2)nc(SCCCCCCC)n1 [Compound D4S7N16] | 1.3%
CCCCCCCCCCCCCCCNc1nc(NCCCN2CCN(C)CC2)nc(SCCCCCCCCCC)n1 [Compound D9S10N15] | 5.4%
CCCCCCCCCCCCCNc1nc(NCCCN(C)C)nc(SCCCCCC)n1 [Compound D6S6N13] | 3.0%
CCCCCCCCCCSc1nc(NCCCCCC)nc(NCCN(C)C)n1 [Compound D1S10N6] | 0.4%
CCCCCCCCCCCCCCCCCCSc1nc(NCCN(CC)CC)nc(SCCCCCC)n1 [Compound D7S6S18] | 9.5%
CCCCCCCCCCCCCCSc1nc(NCCCCCCC)nc(NCCN2CCOCC2)n1 [Compound D2S14N7] | 4.5%
CCCCCCCCCCCCCCCCCCSc1nc(NCCCCCCCCCCC)nc(NCCCN(C)C)n1 [Compound D6S18N11] | 5.7%
CCCCCCCCCCCCNc1nc(NCCCN2CCN(C)CC2)nc(SCCCCCCCCCCC)n1 [Compound D9S11N12] | 21.7%
CCCCCCCCCCCSc1nc(NCCN2CCN(C)CC2)nc(SCCCCCCC)n1 [Compound D5S7S11] | 42.0%
CCCCCCCCCCCCSc1nc(NCCCCCCCC)nc(NCCN(CC)CC)n1 [Compound D7S12N8] | 3.0%
CCCCCCCCCCCCCCSc1nc(NCCCCCCCCCCCC)nc(NCCN2CCCC2)n1 [Compound D3S14N12] | 13.5%
CCCCCCCCCCCCNc1nc(NCCCN2CCN(C)CC2)nc(SCCCCCCCCCCCC)n1 [Compound D9S12N12] | 0.9%
CCCCCCCCCCCCCCCCNc1nc(NCCCN2CCOCC2)nc(SCCCCCCCCCCC)n1 [Compound D8S11N16] | 0.7%
CCCCCCCCNc1nc(NCCCN(C)C)nc(SCCCCCC)n1 [Compound D6S6N8] | 0.4%
CCCCCCCCCCCCCCCNc1nc(NCCCN2CCOCC2)nc(SCCCCCCCCCCC)n1 [Compound D8S11N15] | 0.5%
CCCCCCCCCCCCCCCCCCSc1nc(NCCCCCCCCC)nc(NCC2CCN(C)CC2)n1 [Compound D10S18N9] | 8.9%
CCCCCCCCCCCCCCSc1nc(NCCCCCCC)nc(NCC2CCN(C)CC2)n1 [Compound D10S14N7] | 55.0%
CCCCCCCCSc1nc(NCCCCCC)nc(NCCCN(C)C)n1 [Compound D6S8N6] | 9.4%
CCCCCCSc1nc(NCCN2CCOCC2)nc(SCCCCCC)n1 [Compound D2S6S6] | 2.2%
CCCCCCCCCCCNc1nc(NCCN(C)C)nc(SCCCCCCCC)n1 [Compound D1S8N11] | 9.0%

Structure (SMILES) | Absolute mRNA transfection efficiency in HEK293 cells
CCCCCCCCCCCCCCCCSc1nc(NCCCCCC)nc(NCCN2CCCC2)n1 [Compound D3S16N6] | 96.0%
CCCCCCCCCCCCCCCCSc1nc(NCCN2CCOCC2)nc(SCCCCCC)n1 [Compound D2S6S16] | 16.0%
CCCCCCCCCNc1nc(NCCN2CCCCC2)nc(SCCCCCCC)n1 [Compound D4S7N9] | 4.9%
CCCCCCCCCCCCCCCSc1nc(NCCCCCCCCCCCC)nc(NCCCN(C)C)n1 [Compound D6S15N12] | 9.6%
CCCCCCCCCCCCCCSc1nc(NCCCN(C)C)nc(N(CCCCCCCCCCCC)CCCCCCCCCCCC)n1 [D6S14^2N12] | 0.1%
CCCCCCCCCCCCCCCNc1nc(NCCN(CC)CC)nc(SCCCCCC)n1 [Compound D7S6N15] | 2.2%
CCCCCCCCCCSc1nc(NCCCN(C)C)nc(SCCCCCCC)n1 [Compound D6S7S10] | 18.1%
CCCCCCCCCCCCNc1nc(NCCCN(C)C)nc(SCCCCCCC)n1 [Compound D6S7N12] | 12.5%
CCCCCCCCCCCCCNc1nc(NCC2CCN(C)CC2)nc(SCCCCCCCCC)n1 [Compound D10S9N13] | 75.8%
CCCCCCCCCCSc1nc(NCCCCCC)nc(NCCN2CCCC2)n1 [Compound D3S10N6] | 0.4%
CCCCCCCCCCCCN(CCCCCCCCCCCC)c1nc(NCCCN2CCOCC2)nc(SCCCCCCCCC)n1 [D8S9^2N12] | 0.3%
CCCCCCCCCCCNc1nc(NCCN2CCOCC2)nc(SCCCCCCCCCCC)n1 [Compound D2S11N11] | 0.6%
CCCCCCCCCCCCCCCCCCNc1nc(NCC2CCN(C)CC2)nc(SCCCCCCCCCCC)n1 [Compound D10S11N18] | 9.6%
CCCCCCCCCCCCSc1nc(NCCCN(C)C)nc(SCCCCCC)n1 [Compound D6S6S12] | 24.7%
CCCCCCCCCCCCCCCCCCNc1nc(NCCN2CCCCC2)nc(SCCCCCCCCCCCCCCC)n1 [Compound D4S15N18] | 5.1%
CCCCCCCSc1nc(NCCCN(C)C)nc(SCCCCCCC)n1 [Compound D6S7S7] | 29.3%
CCCCCCCCNc1nc(NCCN2CCN(C)CC2)nc(SCCCCCC)n1 [Compound D5S6N8] | 5.9%
CCCCCCCCCCCCCCCCNc1nc(NCCN(C)C)nc(SCCCCCCCCCCCCCCC)n1 [Compound D1S15N16] | 3.2%
CCCCCCCCCCSc1nc(NCCCCCCCC)nc(NCCCN(C)C)n1 [Compound D6S10N8] | 3.7%
CCCCCCCCCSc1nc(NCCN2CCCC2)nc(SCCCCCCC)n1 [Compound D3S7S9] | 12.6%
CCCCCCCCCCCCCCCCNc1nc(NCCN2CCOCC2)nc(SCCCCCCCCCCCC)n1 [Compound D2S12N16] | 0.8%
CCCCCCCCCCCCCNc1nc(NCCN2CCCCC2)nc(SCCCCCCCC)n1 [Compound D4S8N13] | 4.5%
CCCCCCCCCCCCCNc1nc(NCCN2CCOCC2)nc(SCCCCCCCC)n1 [Compound D2S8N13] | 7.5%

Structure (SMILES) | Absolute mRNA transfection efficiency in HEK293 cells
CCCCCCCCCCSc1nc(NCC2CCN(C)CC2)nc(SCCCCCCCC)n1 [Compound D10S8S10] | 74.2%
CCCCCCCCCCCCCCCCCCSc1nc(NCCCCCCCCCCCCCCC)nc(NCCN2CCCCC2)n1 [Compound D4S18N15] | 1.6%
CCCCCCCCCCSc1nc(NCCCCCC)nc(NCCN2CCCCC2)n1 [Compound D4S10N6] | 0.1%
CCCCCCCCCCSc1nc(NCCCCCCC)nc(NCC2CCN(C)CC2)n1 [Compound D10S10N7] | 1.0%
CCCCCCCCCCCCCCCCCCSc1nc(NCCCCCCCC)nc(NCCN(CC)CC)n1 [Compound D7S18N8] | 9.8%
CCCCCCCCCCCCCCSc1nc(NCCCCCC)nc(NCCN2CCCCC2)n1 [Compound D4S14N6] | 3.0%
CCCCCCNc1nc(NCCN2CCOCC2)nc(SCCCCCC)n1 [Compound D2S6N6] | 0.4%
CCCCCCCCCCCNc1nc(NCCN(C)C)nc(SCCCCCCCCCCC)n1 [Compound D1S11N11] | 24.7%
CCCCCCCCCCCCCCCCCCNc1nc(NCCN(CC)CC)nc(SCCCCCCCCCCCCCC)n1 [Compound D7S14N18] | 0.4%
CCCCCCCCCCCCCCCCNc1nc(NCCCN(C)C)nc(SCCCCCCCCCCC)n1 [Compound D6S11N16] | 6.2%
CCCCCCCCCCCCCCSc1nc(NCCCCCCCCCCCCC)nc(NCCCN2CCOCC2)n1 [Compound D8S14N13] | 1.4%
CCCCCCCCCCCCCCCCNc1nc(NCCCN2CCN(C)CC2)nc(SCCCCCCCCCCCCCC)n1 [Compound D9S14N16] | 0.8%
CCCCCCCCCCCCCCCSc1nc(NCCCCCCCCCCCC)nc(NCC2CCN(C)CC2)n1 [Compound D10S15N12] | 5.1%
CCCCCCCCCCCCSc1nc(NCC2CCN(C)CC2)nc(SCCCCCCCC)n1 [Compound D10S8S12] | 67.9%
CCCCCCCCCCCCCCCCCCSc1nc(NCCCCCCCCC)nc(NCCCN2CCN(C)CC2)n1 [Compound D9S18N9] | 7.6%
CCCCCCCCCCCCN(CCCCCCCCCCCC)c1nc(NCCN(C)C)nc(SCCCCCCCCCC)n1 [D1S10^2N12] | 0.4%
CCCCCCCCCCCCCCCCCCNc1nc(NCCCN(C)C)nc(SCCCCCCCCCC)n1 [Compound D6S10N18] | 31.8%
CCCCCCCCCCCCCCCCCCNc1nc(NCCN2CCOCC2)nc(SCCCCCCCCCCCCCC)n1 [Compound D2S14N18] | 0.1%
CCCCCCCCCCCCCCCCCCSc1nc(NCCCCCCCC)nc(NCCCN2CCN(C)CC2)n1 [Compound D9S18N8] | 25.8%
CCCCCCCCSc1nc(NCCCCCC)nc(NCCN2CCN(C)CC2)n1 [Compound D5S8N6] | 1.6%
CCCCCCCCSc1nc(NCCN2CCCCC2)nc(SCCCCCCCC)n1 [Compound D4S8S8] | 9.9%
